Changes are numbered by the printed parent chain. “Also recorded” adds a separate entry of the source.
Tests used:
TASK-2 [1] = target: T1, TASK-2 (Mus musculus, UniProt F6V9U5); assay: Excised inside-out patch recording from HEK-293 cells over-expressing TASK-2; format: biochemical; details: for Stimulating effect on TASK-2-mediated currents after run-down: diC8 PIP added to inside-out excised patches; for Maximal fold effect on TASK-2 current (normalised to current in absence of PIP) / EC50: -60 mV, from fits, means ± SEM; for EC50: read-out: K0.5 (EC50) for activation of TASK-2 current
T1 construct: expressed in transfected cells; host or cells: HEK-293
T1 sequence (F6V9U5 1-502): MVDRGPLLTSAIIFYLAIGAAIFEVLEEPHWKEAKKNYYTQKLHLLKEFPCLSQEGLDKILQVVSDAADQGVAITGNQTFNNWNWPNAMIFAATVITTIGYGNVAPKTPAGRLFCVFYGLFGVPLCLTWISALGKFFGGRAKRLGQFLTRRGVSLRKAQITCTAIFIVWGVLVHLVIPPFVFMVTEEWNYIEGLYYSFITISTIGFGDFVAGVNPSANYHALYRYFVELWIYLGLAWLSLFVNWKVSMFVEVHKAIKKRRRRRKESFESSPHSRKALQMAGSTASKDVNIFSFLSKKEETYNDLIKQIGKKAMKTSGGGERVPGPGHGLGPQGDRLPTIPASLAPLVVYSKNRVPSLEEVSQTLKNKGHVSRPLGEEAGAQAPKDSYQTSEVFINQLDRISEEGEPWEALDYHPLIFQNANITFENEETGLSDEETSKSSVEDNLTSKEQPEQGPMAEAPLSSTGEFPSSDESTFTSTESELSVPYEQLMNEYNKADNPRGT
Procedure: Recordings in the inside-out isolated patch configuration were performed in the gap-free mode at −60 mV. The inside aspect of the patch was bathed with a solution containing in mM: 10 KCl, 10 Glucose, 1 MgCl2, 10 EGTA, 1 Na3ATP, 0.1 GTP, 6.8 g/100 ml Sucrose, 10 Hepes/Tris, pH 7.4. The pipette contained in mM: 140 KCl, 10 Glucose, 6.8 g/100 ml Sucrose, 10 Hepes/Tris pH 7.4. For isolated patches, borosilicate capillaries (Harvard Apparatus GC150F-10 1.5 ODx0.86 ID) were fire polished to 4–5 MΩ and covered in beeswax. Acquisition was at 10 kHz with filter at 3 kHz (4-pole Bessel) and analysis was done with Clampfit 9.0 (Axon Instruments, Foster City, CA, USA). Traces shown are prints from crude Clampfit screen shots and quantification was done using the average currents were calculated at intervals using Clampfit after baseline adjustment.

TASK-2-K297C = target: T2, TASK-2-K297C (Mus musculus, UniProt F6V9U5, K297C); assay: Excised inside-out patch recording, TASK-2-K297C mutant; format: biochemical; details: 2 mM reducing agent, inside-out patch
T2 construct: expressed in transfected cells; host or cells: HEK-293
T2 sequence (F6V9U5 1-502 K297C): T1 sequence (F6V9U5 1-502) with K297C
Procedure: Figure 6 Scanning of potential sites of interaction of TASK-2 with PI(4,5)P2 by cysteine mutagenesis of intracellular basic residues. (A) Schematic representation of TASK-2 topology showing the sequences of segments of the protein predicted to be intracellular or intracellular-facing. Basic residues are highlighted in red. (B) Recording from an excised inside-out patch of membrane taken from a HEK-293 cell over-expressing TASK-2. The patch was held at −60 mV in the presence of 1 mM ATP. At the intervals indicated by the boxes the intracellular aspect of the membrane was exposed to 300 μM Neomycin and then to 100 μM TPeA. At the end of the TPeA period the patch was additionally exposed to 1 mM MTSET as shown by the black box. (C and D) experiments as in (B), but with inside-out membrane patches obtained from cells expressing the mutants TASK-2-H327C and TASK-2-K297C respectively. In D the reducing agent DTT was also added at 2 mM. (E) Summary of experiments comparing the current before and after treatment with MTSET.
Mus musculus TASK-2 (GenBank accession No. AF319542) plasmid was that obtained from mouse kidney. The cDNAs was subcloned into the pCR3.1 vector. Mutations were made by site-directed mutagenesis into the pCR3.1 vector as previously described[69] and confirmed by sequencing. HEK-293 cells were cultured in Dulbecco’s modified Eagle’s medium (DMEM) and F12 Ham’s medium at a 1:1 ratio and supplemented with 10% fetal calf serum at 37 °C in 5% CO2. For electrophysiological experiments, transient transfections were performed by electroporation, using CD8 cotransfection to identify effectively transfected cells. […] Experiments were performed 4–8 h after electroporation. […]
Recordings in the inside-out isolated patch configuration were performed in the gap-free mode at −60 mV. […] Traces shown are prints from crude Clampfit screen shots and quantification was done using the average currents were calculated at intervals using Clampfit after baseline adjustment.

TASK-2 [2] = target: T1, TASK-2; assay: Whole-cell patch-clamp of HEK-293 cells expressing TASK-2; format: cell-based
Procedure: Mus musculus TASK-2 (GenBank accession No. AF319542) plasmid was that obtained from mouse kidney. The cDNAs was subcloned into the pCR3.1 vector. Mutations were made by site-directed mutagenesis into the pCR3.1 vector as previously described[69] and confirmed by sequencing. HEK-293 cells were cultured in Dulbecco’s modified Eagle’s medium (DMEM) and F12 Ham’s medium at a 1:1 ratio and supplemented with 10% fetal calf serum at 37 °C in 5% CO2. For electrophysiological experiments, transient transfections were performed by electroporation, using CD8 cotransfection to identify effectively transfected cells. […] Experiments were performed 4–8 h after electroporation. In experiments with the voltage-sensitive phosphatase TASK-2 or its mutants were co-electroporated with a pCR3.1-DrVSP-IRES-CD8 vector.
Transiently transfected HEK-293 cells in 35 mm Petri dishes were transferred to the stage of an inverted microscope for study. There they were continuously superfused with a bathing solution containing (in mM): 67.5 Na2SO4, 4 KCl, 1 K gluconate, 2 CaCl2, 1 MgCl2, 105 sucrose, and 10 Hepes/Tris (pH 7.5) (standard solution). A high K^+ solution was obtained by equimolar replacement of Na^+ by K^+. The pipette solution contained (mM) 8 KCl, 132 potassium gluconate, 1 MgCl2, 10 EGTA, 1 Na3ATP, 0.1 GTP, 10 HEPES/Tris, pH 7.4. Standard whole-cell, patch-clamp recordings were performed as described elsewhere. All our whole-cell experiments keep both intra- and extracellular chloride at 10 mM and although currents were measured at several potentials, data mostly reported are those obtained at 0 mV. Potentials were corrected for liquid junction shifts. Acquisition and analysis was done with Clampfit 9.0 (Axon Instruments, Foster City, CA, USA). Further data analysis was done using the curve fitting features of SigmaPlot v. 12 (Systat Software Inc., San Jose, CA, USA).

TASK-3 = assay: Whole-cell current in TASK-3-expressing cells; format: cell-based; details: 100 nM 1,2-dioctanoyl-sn-glycerol, pulses to 0 mV from -75 mV
Procedure: Figure 3 Gq protein coupled receptor inhibition of TASK-2 and minor effect of diacylglycerol. (A) Effect of activation of the angiotensin II receptor AT1 on TASK-2-mediated currents. HEK-293 cells were co-transfected with AT1 and TASK-2, or the TASK-2-K257A-K258A mutant. Current was monitored by brief pulses to 0 mV from a holding potential of −75 mV. Angiotensin II at a concentration of 1 μM was added during the indicated time. Results are means ± SEM of 6 experiments for TASK-2 and 4 experiments for TASK-2-K257A-K258A. (B) Effect of a diacylglycerol analogue assayed on TASK-2- and TASK-3-expressing cells. Current was monitored by brief pulses to 0 mV from a holding potential of −75 mV. The box labelled DAG indicates the addition of diacylglycerol short-chain analogue 1,2-dioctanoyl-sn-glycerol at 100 nM. Results are means ± SEM of 5 experiments for TASK-2 and 8 experiments for TASK-3.
Transiently transfected HEK-293 cells in 35 mm Petri dishes were transferred to the stage of an inverted microscope for study. […] All our whole-cell experiments keep both intra- and extracellular chloride at 10 mM and although currents were measured at several potentials, data mostly reported are those obtained at 0 mV. […]

[3] = diC8 PIP, inside-out patch, absence of ATP

In the case of `O[C@@H](CS)[C@@H](O)CS` (racemic) [DTT, dithiothreitol], the “Reversal of MTSET inhibition of WT TASK-2” value (TASK-2 [1]; 2 mM reducing agent, inside-out patch, Fig. S4) is reported as “reversibility of the effect” and the “Reversal of the MTSET effect on TASK-2-K297C” value (TASK-2-K297C) is reported as “reversed, at least partially”.
In the case of `Nc1ncnc2c1ncn2[C@@H]1O[C@H](CO[P@](=O)(O)O[P@](=O)(O)O[P@@](=O)(O)S)[C@@H](O)[C@H]1O` [ATP-γ-S, adenosine-5′-(γ-thio)-triphosphate], the “Ability to support TASK-2-mediated current in place of ATP” value (TASK-2 [2]; whole-cell, pipette solution with non-hydrolysable analogue, 0 mV) is reported as “unable to support the TASK-2-mediated current”.
`CCCCCCCC(=O)OC[C@H](CO)OC(=O)CCCCCCC` [DAG, 1,2-dioctanoyl-sn-glycerol] was tested, and the “Effect on TASK-3 current” value (TASK-3) was “strong inhibition” and the “Effect on TASK-2 current” value (TASK-2 [2]; 100 nM 1,2-dioctanoyl-sn-glycerol, pulses to 0 mV from -75 mV) was “only a minor effect”.
In the case of `CCCCCCCC(=O)OC[C@H](COP(=O)(O)O[C@H]1[C@H](O)[C@@H](O)[C@H](OP(=O)(O)O)[C@@H](OP(=O)(O)O)[C@H]1O)OC(=O)CCCCCCC` [PI(3,4)P2, phosphatidylinositol 3,4-bisphosphate diC8], the “Effect of readmitted ATP relative to the maximal effect elicited by the PIP” value (TASK-2 [1]; 1 mM ATP added after PIP, inside-out patches, Fig. S3) is reported as 1.4 fold, the “Stimulating effect on TASK-2-mediated currents after run-down” value (TASK-2 [1]; absence of ATP) is reported as “Robust, but intermediate effects” and the “Maximal fold effect on TASK-2 current (normalised to current in absence of PIP)” value (TASK-2 [1]; [3]) is reported as 4.3 ± 0.4 fold. The EC50 (TASK-2 [1]; [3]) was 48.4 ± 4.6 µM and the “Hill coefficient nH of dose response curve” value (TASK-2 [1]; [3]) was 2.
For `CCCCCCCC(=O)OC[C@H](COP(=O)(O)O[C@H]1[C@H](O)[C@@H](OP(=O)(O)O)[C@H](OP(=O)(O)O)[C@@H](OP(=O)(O)O)[C@H]1O)OC(=O)CCCCCCC` [PI(3,4,5)P3, phosphatidylinositol 3,4,5-trisphosphate diC8], the “Stimulating effect on TASK-2-mediated currents after run-down” value (TASK-2 [1]; absence of ATP) was “Largest effect; also recorded: most potent effect”, the “Maximal fold effect on TASK-2 current (normalised to current in absence of PIP)” value (TASK-2 [1]; [3]) was 11.6 ± 1.6 fold and the EC50 (TASK-2 [1]; [3]) was 29.8 ± 10.2 µM.

From paper PMC5371824, “Phosphatidylinositol (4,5)-bisphosphate dynamically regulates the K2P background K^+ channel TASK-2” (Scientific Reports, 2017)
